The results in this text go back to patent publication US7816489B2, “Methods for making intermediates and oxytocin analogues” (Ferring B.V., priority 2002, dated 2010).

Each structure is given as a SMILES string.

In the assay the target is T1, Recombinant human oxytocin receptors (Homo sapiens, UniProt P30559).
T1 construct: expressed in transfected cells; host or cells: CHO cells
T1 sequence (P30559 1-389): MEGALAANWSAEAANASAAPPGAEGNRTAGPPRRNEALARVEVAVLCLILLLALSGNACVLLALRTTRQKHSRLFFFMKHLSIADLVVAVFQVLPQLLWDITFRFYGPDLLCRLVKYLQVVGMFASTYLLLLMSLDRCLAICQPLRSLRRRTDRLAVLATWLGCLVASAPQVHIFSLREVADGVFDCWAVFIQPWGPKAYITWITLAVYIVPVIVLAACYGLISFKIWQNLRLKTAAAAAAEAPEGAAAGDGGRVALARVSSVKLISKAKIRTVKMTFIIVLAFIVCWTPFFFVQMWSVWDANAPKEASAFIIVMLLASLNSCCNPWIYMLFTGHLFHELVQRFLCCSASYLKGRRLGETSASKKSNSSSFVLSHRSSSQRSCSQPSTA
Briefly: Oxytocin receptor binding assay, [125I]-oxytocin, membrane fraction of CHO cells. The settings on record: receptors expressed in CHO cells; [125I]-oxytocin displacement; read-out: inhibition constant Ki. The protocol:
Recombinant human oxytocin receptors were expressed in CHO cells using standard molecular biological techniques. A membrane fraction was prepared and incubated in the presence of [^125I]-oxytocin and varying concentrations of equivalent heptapeptide analogue. Membranes were then isolated by filtration and counted for radioactivity to determine oxytocin binding. An inhibition constant Ki was determined for the analogue.

Turning to `CC[C@@H](C)[C@@H]1NC(=O)[C@H]([C@@H](C)CC)NC(=O)[C@@H](Cc2c[nH]c3ccccc23)NC(=O)CCSCC[C@@H](C(=O)N(C)[C@H](CO)CCCN)NC(=O)[C@H](CC(N)=O)NC1=O` [IV], the Ki (usually the equilibrium dissociation constant of an inhibitor or competing ligand from its target) was 0.1 nM.
